From patent US20160186209A1, “RECOMBINANT CELLS AND METHODS OF USING SUCH CELLS TO IDENTIFY CIRCADIAN RHYTHM MODULATORS” (University of Memphis Research Foundation, priority 2012, published 2016)

Columns and labels:
[1] = test system: Differentiated 3T3-L1 cells (ERK phosphorylation); assay: Insulin-induced ERK phosphorylation (Western blot), differentiated 3T3-L1 cells; assay type: cell-based, mouse; conditions: 0.1 nM insulin for 5 minutes
Protocol: (§1) FIGS. 1A-1C are graphs showing that fibroblasts, adipocytes, and hepatocytes display bioluminescence rhythms. […] Reporter cells were generated via lentiviral infection of either Per2-dLuc or Bmal1-dLuc luciferase reporter, and infected cell populations were recorded in a LumiCycle. Baseline-subtracted bioluminescence data of both reporter lines are plotted together to show the expected, approximately anti-phasic reporter expression for each cell type. […] Baseline-subtracted bioluminescence data of selected clonal lines representing both reporter types are plotted together to show anti-phasic reporter expression for each cell type. High reproducibility is illustrated by showing data from 24 of the 96 wells for each reporter. […] Differentiated 3T3-L1 and MMH-D3 cells were treated with 0.1, 1, or 10 nM insulin for 5, 15, or 30 minutes, followed by cell lysis and Western blot analysis with ERK and pERK antibodies. […] Data are representative of two independent experiments.
(§2) To develop new models, a battery of luciferase-based reporters that can be introduced into cells via transient transfection or lentiviral transduction was engineered. To explore cell type specificity of clock gene function, new reporter cell lines comprising lentiviral luciferase reporter driven either by the Per2 or Bmal1 promoters were developed. […]

[2] = test system: Differentiated MMH-D3 cells (ERK phosphorylation); assay: Insulin-induced ERK phosphorylation (Western blot), differentiated MMH-D3 cells; assay type: cell-based; conditions: 0.1 nM insulin for 5 minutes
Protocol: as §1, §2

With insulin the “ERK activation as reflected by its phosphorylation” value [1] was “sufficient to activate ERK” and the “ERK activation as reflected by its phosphorylation” value [2] was “sufficient to activate ERK”.
